Experiments:
[1] = test system: patients with severe systemic mastocytosis; assay: Example 5 post-hoc analysis of pooled phase 2 studies; assay type: in vivo, human
Protocol: A first phase 2 study was conducted in patients with indolent forms of mastocytosis with handicap and not bearing activating point mutations in the phosphotransferase domain of c-Kit such as the main mutation Asp-816-Val. A second phase 2 study was conducted in patients with mastocytosis with handicap and bearing activating point mutations in the phosphotransferase domain of c-Kit such as the main mutation Asp-816-Val.
In one scenario, among those systemic mastocytosis patients from these pooled studies, 28 patients met the criteria for severe handicap at baseline, as defined as having at least one handicap selected from pruritus, flushes, fatigue or depression (defined respectively as: pruritus score ≥9, flushes frequency per week ≥8, FIS ≥75, or Hamilton score ≥19) with a total of 53 severe baseline handicaps reported (note that a given patient may present with more than one handicap). Assessment of treatment response on a handicap was defined as a ≥75% improvement from baseline on at least one handicap among pruritus, flushes, fatigue or depression.
In an alternative scenario, among those systemic mastocytosis patients from these pooled studies, 4 patients met the criteria for severe handicap at baseline, as defined as having handicaps of both pruritus and flushes (defined respectively as: pruritus score ≥9, and flushes frequency per week ≥8) with a total of 8 severe baseline handicaps reported. Assessment of treatment response on a handicap was defined as a ≥75% improvement from baseline on at least one handicap among pruritus or flushes. Overall, at week 24 there was a response rate of 50.0%.

[2] = test system: patients with smoldering systemic, indolent systemic or cutaneous mastocytosis with handicap; assay: phase 3 study AB06006, masitinib versus placebo; assay type: in vivo, human
Source text: The trial lasted 24 weeks with possible extension. In accordance with protocol amendment version 7.0 (v7), the study population was amended to a more restricted subpopulation of mastocytosis. […] The trial lasted 24 weeks with possible extension. […] To be noted, for the purpose of efficacy analysis a patient was classified as severe if they suffered from at least one of the main handicaps constituting the primary endpoint: […] The criterion of “at least two of the following handicaps” including handicaps on stools and micturition, was relaxed to “at least one of the main handicaps” (i.e. pruritus, flushes, depression and fatigue). […] At each patient evaluation between weeks 8 and 24, each of the above four severe symptoms was evaluated. […] In this case, missing data was imputed as failure (missing=failure as primary analysis). • Case 2: discontinuation for a documented reason excluding toxicity or lack of efficacy. In this case, non-observed values can be considered as Missing At Random (MAR), and no imputation will be done (Observed Cases). • Replacement of missing value for patients present at the visit: If data was missing despite the patient being present at the visit, said missing data was not replaced. Secondary Analysis: […] (asthenia). • A second group comprised patients diagnosed as having severe indolent systemic mastocytosis, severe smoldering systemic mastocytosis, or severe cutaneous mastocytosis. […] This group provides comparative analysis for patient selection according to variant of mastocytosis (i.e. systemic versus cutaneous). • A third group comprised all randomized patients to study AB06006, corresponding therefore to the least restricted population, comprising patients with severe/non severe indolent and smoldering systemic mastocytosis, and severe/non severe cutaneous mastocytosis. This group provides comparative analysis based on patient selection according to severity of mast cell mediator release symptoms. […] ≥40. Diff=absolute difference in response rates between treatment-arms of a given population (masitinib arm minus placebo arm). Factor Diff=ratio of 'Diff' between compared populations showing relative superiority of response rate for severe systemic population over the comparator population. […] ****PF=patients with both pruritus and flushes handicap at baseline.

[3] = test system: patients with indolent forms of mastocytosis with handicap; conditions: in vivo
[4] = test system: Ba/F3 cells expressing human or mouse wild-type c-Kit; conditions: stem cell factor-induced proliferation and c-Kit tyrosine phosphorylation; cited from earlier work
[5] = test system: Ba/F3 cells expressing the D816V c-Kit mutation; conditions: proliferation; cited from earlier work
[6] = from W8 to W24, listed as Masitinib
[7] = moderate baseline handicap, all patients
[8] = moderate baseline handicap, all patients (n = 110)
[9] = moderate baseline handicap, severe indolent/smoldering systemic
[10] = moderate baseline handicap, severe indolent/smoldering systemic (n = 67)
[11] = moderate baseline handicap, severe systemic vs all patients
[12] = severe baseline handicap, severe cutaneous/indolent/smoldering
[13] = severe baseline handicap, severe cutaneous/indolent/smoldering (n = 110)
[14] = severe baseline handicap, severe indolent/smoldering systemic
[15] = severe baseline handicap, severe indolent/smoldering systemic (n = 67)
[16] = severe baseline handicap, severe systemic vs severe cutaneous/indolent/smoldering

## Cc1ccc(NC(=O)c2ccc(CN3CCN(C)CC3)cc2)cc1Nc1nc(-c2cccnc2)cs1 [masitinib, 4-(4-methylpiperazin-1-ylmethyl)-N-[4-methyl-3-(4-pyridin-3ylthiazol-2-ylamino)phenyl]benzamide]
[1]; Week 12, at least one severe handicap at baseline (28 patients)
  Overall response ≥75%: 28.3%
[1]; Week 12, at least one severe handicap at baseline (28 patients), listed as Masitinib
  Overall response ≥75%: 25.0%
[1]; Week 24, at least one severe handicap at baseline (28 patients)
  Overall response ≥75%: 23.5%
[1]; Week 24, at least one severe handicap at baseline (28 patients), listed as Masitinib
  Overall response ≥75%: 23.5%
[1]; Week 24, severe pruritus and flushes at baseline (4 patients, 8 handicaps)
  Overall response ≥75%: 50.0
[1]; from W8 to W24
  Cumulative response rate (≥75%): FIS only: 8.0%
  Cumulative response rate (≥75%): Flushes only: 52.8%
  Cumulative response rate (≥75%): Flushes or Pruritus: approximately 40%
  Cumulative response rate (≥75%): Hamilton only: 16.7%
  Cumulative response rate (≥75%): Hamilton or FIS: ~10%
  Cumulative response rate (≥75%): Micturition frequency (pollakiuria) only: 1.8%
  Cumulative response rate (≥75%): Overall Response: 26.1%
  Cumulative response rate (≥75%): Pruritus only: 28.6%
  Cumulative response rate (≥75%): Stool frequency (diarrhea) only: 18.4%
[1]; [6]
  Cumulative response rate (≥75%): Flushes or Pruritus: 38.8%
  Cumulative response rate (≥75%): Hamilton or FIS: 10.3%
[2]; [7]
  2H[75%] Diff (masitinib arm minus placebo arm): 2.9%
  3H[75%] Diff (masitinib arm minus placebo arm): 2.3%
  4H[75%] Diff (masitinib arm minus placebo arm): 0.4%
  PF Diff (masitinib arm minus placebo arm): 0.2%
[2]; [8]
  2H[75%] cumulative response: 23.3%
  3H[75%] cumulative response: 20.3%
  4H[75%] cumulative response: 16.3%
  PF cumulative response: 26.9%
[2]; [9]
  2H[75%] Diff (masitinib arm minus placebo arm): 12.2%
  3H[75%] Diff (masitinib arm minus placebo arm): 12.8%
  4H[75%] Diff (masitinib arm minus placebo arm): 10.1%
  PF Diff (masitinib arm minus placebo arm): 10.7%
[2]; [10]
  2H[75%] cumulative response: 28.2%
  3H[75%] cumulative response: 24.8%
  4H[75%] cumulative response: 19.6%
  PF cumulative response: 28.7%
[2]; [11]
  2H[75%] Factor Diff: 4.2
  3H[75%] Factor Diff: 5.6
  4H[75%] Factor Diff: 25.3
  PF Factor Diff: 53.5
[2]; [12]
  2H[75%] Diff (masitinib arm minus placebo arm): 7.4%
  3H[75%] Diff (masitinib arm minus placebo arm): 6.3%
  4H[75%] Diff (masitinib arm minus placebo arm): 3.3%
  PF Diff (masitinib arm minus placebo arm): 6.9%
[2]; [13]
  2H[75%] cumulative response: 22.0%
  3H[75%] cumulative response: 20.0%
  4H[75%] cumulative response: 15.4%
  PF cumulative response: 30.6%
[2]; [14]
  2H[75%] Diff (masitinib arm minus placebo arm): 16.5%
  3H[75%] Diff (masitinib arm minus placebo arm): 15.2%
  4H[75%] Diff (masitinib arm minus placebo arm): 11.1%
  PF Diff (masitinib arm minus placebo arm): 17.8%
[2]; [15]
  2H[75%] cumulative response: 27.2%
  3H[75%] cumulative response: 24.9%
  4H[75%] cumulative response: 18.6%
  PF cumulative response: 35.4%
[2]; [16]
  2H[75%] Factor Diff: 2.2
  3H[75%] Factor Diff: 2.4
  4H[75%] Factor Diff: 3.4
  PF Factor Diff: 2.6
[3]
  deaths during the study: No deaths
[4]
  IC50: 150 ± 80 nM
[5]
  IC50: 5 ± 2 µM

From US10045978B2 (AB SCIENCE, priority 2010, dated 2018)
